Experiment [1] in a line: Compound was tested for inactivation of sterol methyl transferase (SMT) enzyme in Prototheca wickerhamii.
Another experiment relates to Prototheca wickerhamii. Put plainly: Compound was tested for inactivation of sterol methyl transferase( SMT) enzyme in Prototheca wickerhamii.

In experiment [1], `C=C/C(C)=C/CC[C@@H](C)C1CC[C@@]2(C)C3CCC4C(C)(C)C(O)CCC45CC35CCC12C` (some centres not stated) registered a Ki of 30 µM. The K inact in the experiment with Prototheca wickerhamii was 0.3 min⁻¹.
